Activity calls are given as the source filed them. The calls are words filed in the database; no cut-off is given here.
Columns and labels:
HT-29 [1] = assay: Induction of apoptosis in human HT-29 cells assessed as early apoptotic cells at 4 uM incubated for 24 hr by Annexin-V-FITC/PI staining based flow cytometry (Rvb=6.25%); type: functional
HT-29 [2] = assay: Induction of apoptosis in human HT-29 cells assessed as increase in cytochrome c protein level at 2 to 8 uM incubated for 24 hrs by western blot analysis; type: functional, cell-based; conditions: dose 2-8 µM
HT-29 [3] = assay: Induction of apoptosis in human HT-29 cells assessed as late apoptotic cells at 2 uM incubated for 24 hr by Annexin-V-FITC/PI staining based flow cytometry (Rvb=8.60%); type: functional
HT-29 [4] = assay: Antitumor activity against human HT-29 cells xenografted in BALB/c mouse assessed as reduction of tumor weight at 15 mg/kg, ip bid and measured after 14 days; type: functional, organism-based; conditions: time 14.0 day
HT-29 [5] = assay: Induction of apoptosis in human HT-29 cells assessed as viable cells at 8 uM incubated for 24 hr by Annexin-V-FITC/PI staining based flow cytometry (Rvb= 83.5%); type: functional; conditions: read-out: Activity
RKO [6] = assay: Induction of apoptosis in human RKO cells assessed as reduction in mitochondrial membrane potential at 3 to 9 uM by TMRE staining based flow cytometry; type: functional, cell-based; conditions: dose 3-9 µM
RKO [7] = assay: Inhibition of NF-kappaB signalling pathway in human RKO cells assessed as decrease in phosphorylated NF-kappaB p65 level at 3 to 9 uM incubated for 24 hrs by Western blot analysis; type: cell-based; conditions: dose 3-9 µM
[8] = Tmax in Sprague-Dawley rat at 30 mg/kg, po and measured upto 12 hrs by LC-MS analysis; type: ADME, organism-based; conditions: in vivo
HT-29 [9] = assay: Antitumor activity against human HT-29 cells xenografted in BALB/c mouse assessed as reduction of tumor weight at 30 mg/kg, ip bid and measured after 14 days; type: functional, organism-based; conditions: time 14.0 day
RKO [10] = assay: Induction of apoptosis in human RKO cells assessed as early apoptotic cells at 9 uM incubated for 24 hr by Annexin-V-FITC/PI staining based flow cytometry (Rvb= 7.27%); type: functional
HT-29 [11] = assay: Induction of apoptosis in human HT-29 cells assessed as necrotic cells at 4 uM incubated for 24 hr by Annexin-V-FITC/PI staining based flow cytometry (Rvb=1.67%); type: functional
RKO [12] = assay: Induction of apoptosis in human RKO cells assessed as necrotic cells at 6 uM incubated for 24 hr by Annexin-V-FITC/PI staining based flow cytometry (Rvb= 0.30%); type: functional
[13] = biological target: Prostaglandin G/H synthase 2 (Homo sapiens) (UniProt P35354); assay: Inhibition of COX-2 (unknown origin) at 3 uM
HT-29 [14] = assay: Induction of apoptosis in human HT-29 cells assessed as viable cells at 4 uM incubated for 24 hr by Annexin-V-FITC/PI staining based flow cytometry (Rvb= 83.5%); type: functional; conditions: read-out: Activity
RKO [15] = assay: Inhibition of NF-kappaB signalling pathway in human RKO cells assessed as decrease in phosphorylated IkappaB level at 3 to 9 uM incubated for 24 hrs by Western blot analysis; type: cell-based; conditions: dose 3-9 µM
[16] = AUC (0-t) in Sprague-Dawley rat at 30 mg/kg, po and measured upto 12 hrs by LC-MS analysis; type: ADME, organism-based; design: dose 30 mg/kg, time < 12 hrs, route po; conditions: in vivo
HT-29 [17] = assay: Antitumor activity against human HT-29 cells xenografted in BALB/c mouse assessed as inhibition of tumor cell proliferation at 30 mg/kg, ip bid for 14 days by Ki67 staining based immunohistochemical analysis (Rvb= 16.61+/-1.05%); type: functional; design: scale not given: the % may be the effect or the level left; conditions: time 14 day
HT-29 [18] = assay: Induction of apoptosis in human HT-29 cells assessed as decrease in Bcl-2 protein level at 2 to 8 uM incubated for 24 hrs by western blot analysis; type: functional, cell-based; conditions: dose 2-8 µM
SW480 = assay: Antitumor activity against human SW480 cells assessed as inhibition of cell proliferation incubated for 72 hrs by MTT assay; type: functional, cell-based; conditions: SW480, 72 h
[19] = biological target: Prostaglandin G/H synthase 2 (Homo sapiens) (UniProt P35354); assay: Inhibition of COX-2 (unknown origin) at 30 uM
HT-29 [20] = assay: Inhibition of NF-kappaB signalling pathway in human HT-29 cells assessed as decrease in phosphorylated IkappaB level at 2 to 8 uM incubated for 24 hrs by Western blot analysis; type: cell-based; conditions: dose 2-8 µM
RKO [21] = assay: Induction of DNA damage in human RKO cells assessed as increase in tail length at 3 to 9 uM incubated for 24 hrs by Comet assay; type: functional, cell-based; conditions: dose 3-9 µM
[22] = Tmax in Sprague-Dawley rat at 100 mg/kg, po and measured upto 24 hrs by LC-MS analysis; type: ADME, organism-based; conditions: in vivo
[23] = AUC (0-t) in Sprague-Dawley rat at 100 mg/kg, po and measured upto 24 hrs by LC-MS analysis; type: ADME, organism-based; design: dose 100 mg/kg, time < 24 hrs, route po; conditions: in vivo
RKO [24] = assay: Antiproliferative activity against human RKO cells assessed as inhibition of cell colonies at 0.37 to 1.5 uM incubated for 7 days by crystal violet staining based microscopic analysis; type: functional; conditions: dose 0.37-1.5 µM, time 7.0 day
HT-29 [25] = assay: Induction of apoptosis in human HT-29 cells assessed as necrotic cells at 2 uM incubated for 24 hr by Annexin-V-FITC/PI staining based flow cytometry (Rvb=1.67%); type: functional
RKO [26] = assay: Induction of apoptosis in human RKO cells assessed as increase in cleaved caspase-3 protein level at 3 to 9 uM incubated for 24 hrs by western blot analysis; type: functional, cell-based; conditions: dose 3-9 µM
RKO [27] = assay: Induction of apoptosis in human RKO cells assessed as late apoptotic cells at 6 uM incubated for 24 hr by Annexin-V-FITC/PI staining based flow cytometry (Rvb= 4.49%); type: functional
HT-29 [28] = assay: Induction of apoptosis in human HT-29 cells assessed as increase in Bax protein level at 2 to 8 uM incubated for 24 hrs by western blot analysis; type: functional, cell-based; conditions: dose 2-8 µM
RKO [29] = assay: Induction of apoptosis in human RKO cells assessed as late apoptotic cells at 3 uM incubated for 24 hr by Annexin-V-FITC/PI staining based flow cytometry (Rvb= 4.49%); type: functional

Prostaglandin G/H synthase 2 (Homo sapiens), sequence (P35354 whole entry, looked up): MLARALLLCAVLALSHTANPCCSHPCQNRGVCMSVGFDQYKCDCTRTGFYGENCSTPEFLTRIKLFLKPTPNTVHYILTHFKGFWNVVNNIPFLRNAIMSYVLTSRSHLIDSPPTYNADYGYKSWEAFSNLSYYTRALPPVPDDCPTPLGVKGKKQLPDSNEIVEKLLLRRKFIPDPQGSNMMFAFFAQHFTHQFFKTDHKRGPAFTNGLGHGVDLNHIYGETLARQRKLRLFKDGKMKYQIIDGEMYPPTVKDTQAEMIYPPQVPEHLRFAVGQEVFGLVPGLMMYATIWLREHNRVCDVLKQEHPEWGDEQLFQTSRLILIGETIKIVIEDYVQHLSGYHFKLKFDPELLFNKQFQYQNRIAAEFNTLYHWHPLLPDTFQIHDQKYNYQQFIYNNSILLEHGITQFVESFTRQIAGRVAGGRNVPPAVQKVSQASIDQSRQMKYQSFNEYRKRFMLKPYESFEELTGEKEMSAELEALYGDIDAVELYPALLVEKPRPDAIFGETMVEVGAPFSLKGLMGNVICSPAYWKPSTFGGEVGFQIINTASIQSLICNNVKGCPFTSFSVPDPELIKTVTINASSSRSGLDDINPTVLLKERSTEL

Cc1c(Cl)cccc1Nc1ccccc1C(=O)Nc1ccc(N2CCNCC2)cc1
Activity (HT-29 [1]): 4.95% | Activity (HT-29 [2]): Active | Activity (HT-29 [3]): 11% | Activity (HT-29 [4]): Active | viability at 8 µM (HT-29 [5]): 68.9% | Activity (RKO [6]): Active | inhibition (RKO [7]): Active | Tmax [8]: 0.28 h | Activity (HT-29 [9]): Active | Activity (RKO [10]): 22.7% | Activity (HT-29 [11]): 1.06% | Activity (RKO [12]): 0.73% | inhibition [13]: 74.2% | viability at 4 µM (HT-29 [14]): 80% | inhibition (RKO [15]): Active | AUC(0-t) at 12 h [16]: 5410 ng·h/mL | Activity (HT-29 [17]): 3.27% | Activity (HT-29 [18]): Active | IC50 (SW480): 7.36 µM | inhibition [19]: 100% | inhibition (HT-29 [20]): Active | Activity (RKO [21]): Active | Tmax [22]: 3.67 h | AUC(0-t) at 24 h [23]: 24800 ng·h/mL | Activity (RKO [24]): Active | Activity (HT-29 [25]): 1.49% | Activity (RKO [26]): Active | Activity (RKO [27]): 6.88% | Activity (HT-29 [28]): Active | Activity (RKO [29]): 4.66%
